How the values were obtained:
[1] = test system: wild-type HIV-IIIB strain; assay: Antiviral analysis EGFP: anti-HIV activity in MT4 LTR-EGFP cells; format: cell-based, HIV-1; settings: fluorescence of HIV-infected cells reduced by 50%, three days after infection
Method: The compounds of the present invention were tested for anti-viral activity in a cellular assay, which was performed according to the following procedure.
The human T-cell line MT4 is engineered with Green Fluorescent Protein (GFP) and an HIV-specific promoter, HIV-1 long terminal repeat (LTR). This cell line is designated MT4 LTR-EGFP, and can be used for the in vitro evaluation of anti-HIV activity of investigational compounds. In HIV-1 infected cells, the Tat protein is produced which upregulates the LTR promotor and finally leads to stimulation of the GFP reporter production, allowing measuring ongoing HIV-infection fluorometrically.
(§1) Effective concentration values such as 50% effective concentration (EC50) can be determined and are usually expressed in μM. An EC50 value is defined as the concentration of test compound that reduces the fluorescence of HIV-infected cells by 50%. The 50% cytotoxic concentration (CC50 in μM) is defined as the concentration of test compound that reduces fluorescence of the mock-infected cells by 50%. The ratio of CC50 to EC50 is defined as the selectivity index (SI) and is an indication of the selectivity of the anti-HIV activity of the inhibitor. The ultimate monitoring of HIV-1 infection and cytotoxicity is done using a scanning microscope. Image analysis allows very sensitive detection of viral infection. Measurements are done before cell necrosis, which usually takes place about five days after infection, in particular measurements are performed three days after infection.
The following Table 5 lists EC50 values, expressed in micromole/liter, against wild-type HIV-IIIB strain, for a selected number of compounds of the invention.

[2] = test system: MT4 CMV-EGFP cells; assay: Cytotoxicity in mock-infected MT4 CMV-EGFP cells; format: cell-based, human; settings: fluorescence reduced by 50%
From the text: Analogously, MT4 cells are engineered with GFP and the constitutional cytomegalovirus (CMV) promotor. This cell line is designated MT4 CMV-EGFP, and can be used for the in vitro evaluation of cytotoxicity of investigational compounds. In this cell line, GFP levels are comparably to those of infected MT4 LTR-EGFP cells. Cytotoxic investigational compounds reduce GFP levels of mock-infected MT4 CMV-EGFP cells.
as §1

N#Cc1ccc(-n2c(=O)c(C#N)cc3ccccc32)cc1 [compound 2]
EC50 [1]: > 32 µM | CC50 [2]: > 32 µM

Cc1ccc(-n2c(=O)c(C#N)c(N)c3ccc(-c4cccs4)cc32)cc1C#N [compound 126]
EC50 [1]: 5.7 µM | CC50 [2]: > 100 µM

N#Cc1cc2ccc(-c3cn[nH]c3)cc2n(-c2ccc([N+](=O)[O-])cc2)c1=O [compound 48]
EC50 [1]: 0.71 µM | CC50 [2]: > 100 µM

N#Cc1cc2cc(OC[C@@H]3CCCN3)ccc2n(-c2ccc([N+](=O)[O-])cc2)c1=O [compound 88]
EC50 [1]: 1.41 µM | CC50 [2]: 6.54 µM

N#Cc1c(NCCCO)c2ccccc2n(-c2ccc([N+](=O)[O-])cc2)c1=O [compound 138]
EC50 [1]: 12 µM | CC50 [2]: > 100 µM

N#Cc1cc2cc(OC[C@H]3CCCN3)ccc2n(-c2ccc([N+](=O)[O-])cc2)c1=O [compound 87]
EC50 [1]: 1.19 µM | CC50 [2]: > 32 µM

N#Cc1cc2ccc(-c3cccc(CO)c3)cc2n(-c2ccc([N+](=O)[O-])cc2)c1=O [compound 38]
EC50 [1]: 0.61 µM | CC50 [2]: 18.6 µM

N#Cc1c(N)c2cccnc2n(-c2ccc([N+](=O)[O-])cc2)c1=O [compound 129]
EC50 [1]: 18.3 µM | CC50 [2]: > 32 µM

N#Cc1cc2ccc(-c3cccnc3)cc2n(-c2ccc([N+](=O)[O-])cc2)c1=O [compound 33]
EC50 [1]: 0.83 µM | CC50 [2]: > 100 µM

CC(=O)NCCNc1c(C#N)c(=O)n(-c2ccc([N+](=O)[O-])cc2)c2ccccc12 [compound 141]
EC50 [1]: 32.2 µM | CC50 [2]: > 100 µM

N#Cc1c(N)c2ccc(Cl)cc2n(-c2ccc3nonc3c2)c1=O [compound 113]
EC50 [1]: 2.73 µM | CC50 [2]: > 100 µM

N#Cc1cc2ccc(NCC3CCNC3)cc2n(-c2ccc([N+](=O)[O-])cc2)c1=O (centres unmarked) [compound 18]
EC50 [1]: 4.43 µM | CC50 [2]: > 32 µM

N#Cc1c(NCCO)c2ccccc2n(-c2ccc([N+](=O)[O-])cc2)c1=O [compound 134]
EC50 [1]: 13.5 µM | CC50 [2]: 54.6 µM

N#Cc1cc2ccc(-c3ccncc3)cc2n(-c2ccc([N+](=O)[O-])cc2)c1=O [compound 29]
EC50 [1]: 0.92 µM | CC50 [2]: > 32 µM

Cc1ccc(-n2c(=O)c(C#N)c(N)c3ccc(-c4ccsc4)cc32)cc1C#N [compound 125]
EC50 [1]: 4.11 µM | CC50 [2]: > 100 µM

CC(=O)Nc1cccc(-c2ccc3cc(C#N)c(=O)n(-c4ccc([N+](=O)[O-])cc4)c3c2)c1 [compound 39]
EC50 [1]: 51.3 µM | CC50 [2]: > 100 µM

N#Cc1cc2ccc(-c3ccc(C(=O)O)cc3)cc2n(-c2ccc([N+](=O)[O-])cc2)c1=O [compound 49]
EC50 [1]: > 100 µM | CC50 [2]: > 100 µM

N#Cc1cc2ccc(OCCCO)cc2n(-c2ccc([N+](=O)[O-])cc2)c1=O [compound 76]
EC50 [1]: 1.03 µM | CC50 [2]: > 100 µM

Cc1ccc2cc(C#N)c(=O)n(-c3ccc([N+](=O)[O-])cc3)c2c1 [compound 95]
EC50 [1]: > 100 µM | CC50 [2]: > 100 µM

CN(C)CCCOc1ccc2c(c1)cc(C#N)c(=O)n2-c1ccc([N+](=O)[O-])cc1 [compound 85]
EC50 [1]: 1.15 µM | CC50 [2]: > 32 µM

N#Cc1c(NCCN)c2ccccc2n(-c2ccc([N+](=O)[O-])cc2)c1=O [compound 133]
EC50 [1]: 0.23 µM | CC50 [2]: 20.1 µM

N#Cc1c(N)c2ccc(C(F)(F)F)cc2n(-c2ccc([N+](=O)[O-])cc2)c1=O [compound 114]
EC50 [1]: 3.94 µM | CC50 [2]: > 100 µM

N#Cc1cc2ccc(-c3cc[nH]n3)cc2n(-c2ccc([N+](=O)[O-])cc2)c1=O [compound 46]
EC50 [1]: 0.16 µM | CC50 [2]: > 100 µM

N#Cc1cc2ccc(-c3nccs3)cc2n(-c2ccc([N+](=O)[O-])cc2)c1=O [compound 80]
EC50 [1]: 0.13 µM | CC50 [2]: 5.02 µM

N#Cc1cc2ccc(OCCCNCCO)cc2n(-c2ccc([N+](=O)[O-])cc2)c1=O [compound 72]
EC50 [1]: 0.93 µM | CC50 [2]: > 32 µM

N#Cc1cc2ccc(OCCCN3CCCCC3)cc2n(-c2ccc([N+](=O)[O-])cc2)c1=O [compound 67]
EC50 [1]: 1.17 µM | CC50 [2]: > 32 µM

N#Cc1c(N)c2cc(F)c(Cl)cc2n(-c2ccc([N+](=O)[O-])cc2)c1=O [compound 108]
EC50 [1]: 0.9 µM | CC50 [2]: > 100 µM

CS(=O)(=O)NCc1cccc(-c2ccc3cc(C#N)c(=O)n(-c4ccc([N+](=O)[O-])cc4)c3c2)c1 [compound 50]
EC50 [1]: 3 µM | CC50 [2]: 11.8 µM

N#Cc1cc2ccc(-c3cccc(CN)c3)cc2n(-c2ccc([N+](=O)[O-])cc2)c1=O [compound 30]
EC50 [1]: 0.63 µM | CC50 [2]: 24.7 µM

N#Cc1c(NCCCN)c2ccccc2n(-c2ccc([N+](=O)[O-])cc2)c1=O [compound 137]
EC50 [1]: 3.66 µM | CC50 [2]: 45.1 µM

N#Cc1cc2cc3c(cc2n(-c2ccc(Cl)nc2)c1=O)OCO3 [compound 97]
EC50 [1]: > 32 µM | CC50 [2]: > 32 µM

N#Cc1ccc2cc(C#N)c(=O)n(-c3ccc([N+](=O)[O-])cc3)c2c1 [compound 96]
EC50 [1]: 13.5 µM | CC50 [2]: > 100 µM

CNc1c(C#N)c(=O)n(-c2ccc([N+](=O)[O-])cc2)c2ncccc12 [compound 128]
EC50 [1]: 13.9 µM | CC50 [2]: > 32 µM

N#Cc1cc2cc(OCCCN)ccc2n(-c2ccc([N+](=O)[O-])cc2)c1=O [compound 84]
EC50 [1]: 3.64 µM | CC50 [2]: 15.5 µM

Cc1ccc(-n2c(=O)c(C#N)cc3ccccc32)cn1 [compound 5]
EC50 [1]: > 32 µM | CC50 [2]: > 32 µM

CCN(CC)CCOc1ccc2cc(C#N)c(=O)n(-c3ccc([N+](=O)[O-])cc3)c2c1 [compound 59]
EC50 [1]: 12.9 µM | CC50 [2]: > 32 µM

N#Cc1c(N)c2cc(Cl)ccc2n(-c2ccc([N+](=O)[O-])cc2)c1=O [compound 107]
EC50 [1]: > 100 µM | CC50 [2]: > 100 µM

N#Cc1cc2ccc(NCCN3CCCC3)cc2n(-c2ccc([N+](=O)[O-])cc2)c1=O [compound 12]
EC50 [1]: 1.22 µM | CC50 [2]: > 100 µM

N#Cc1c(NCCCN2CCCC2)c2ccccc2n(-c2ccc([N+](=O)[O-])cc2)c1=O [compound 132]
EC50 [1]: 2.04 µM | CC50 [2]: 15.3 µM

N#Cc1cc2ccc(OCCN3CCOCC3)cc2n(-c2ccc([N+](=O)[O-])cc2)c1=O [compound 55]
EC50 [1]: 13.5 µM | CC50 [2]: > 32 µM

N#Cc1cc2ccc(-c3cccc(C(N)=O)c3)cc2n(-c2ccc([N+](=O)[O-])cc2)c1=O [compound 42]
EC50 [1]: 2.85 µM | CC50 [2]: > 100 µM

CNCCCNc1ccc2cc(C#N)c(=O)n(-c3ccc([N+](=O)[O-])cc3)c2c1 [compound 22]
EC50 [1]: 0.36 µM | CC50 [2]: 88.7 µM

N#Cc1cc2ccc(-c3cccc(O)c3)cc2n(-c2ccc([N+](=O)[O-])cc2)c1=O [compound 32]
EC50 [1]: 0.65 µM | CC50 [2]: > 100 µM

N#Cc1cc2ccc(NCCCN)cc2n(-c2ccc([N+](=O)[O-])cc2)c1=O [compound 19]
EC50 [1]: 0.91 µM | CC50 [2]: 30.6 µM

N#Cc1c(NCc2ccccn2)c2ccccc2n(-c2ccc([N+](=O)[O-])cc2)c1=O [compound 131]
EC50 [1]: 15.9 µM | CC50 [2]: > 100 µM

N#Cc1c(NCCCn2ccnc2)c2ccccc2n(-c2ccc([N+](=O)[O-])cc2)c1=O [compound 140]
EC50 [1]: > 100 µM | CC50 [2]: > 100 µM

CN(C)Cc1cccc(-c2ccc3cc(C#N)c(=O)n(-c4ccc([N+](=O)[O-])cc4)c3c2)c1 [compound 45]
EC50 [1]: 0.14 µM | CC50 [2]: 17.1 µM

CCC(CC)NCCCOc1ccc2cc(C#N)c(=O)n(-c3ccc([N+](=O)[O-])cc3)c2c1 [compound 68]
EC50 [1]: 0.73 µM | CC50 [2]: 51.6 µM

N#Cc1cc2ccc(OCCN3CCCC3)cc2n(-c2ccc([N+](=O)[O-])cc2)c1=O [compound 52]
EC50 [1]: 2.45 µM | CC50 [2]: > 32 µM
